According to patent publication US20100029654A1, “CARDIOVASCULAR COMPOSITIONS AND USE OF THE SAME FOR THE TREATMENT OF ALZHEIMER'S DISEASE” (MOUNT SINAI SCHOOL OF MEDICINE, priority 2006, published 2010):
Counter-ions that a name gives are not always drawn. Like-named read-outs stand apart in the source and are kept apart here.

Tests used:
Aβ1-40 = Aβ1-40 content in conditioned medium of primary cortico-hippocampal neuron cultures from Tg2576 mice (ELISA; primary and secondary dose-response screening); format: cell-based, mouse; conditions: for activity at 100 µM: Mus musculus, Neuron, 24 h, read-out: Ab1-40 (% of ctl); for activity at 100 µM / Ab1-40 (% of ctl): drug 100 μM; for reduced Aβ1-40: <85% of ctl
Experimental: (§1) Potential Aβ-lowering activity was assessed for 150 commercially available cardiovascular drugs using primary cortico-hippocampal neuron cultures derived from embryonic Tg2576 (El 6). […] All cardiovascular reagents were obtained from MicroSource Discovery Systems Inc (Gaylordsville, Conn.). […] Individual cardiovascular agents were applied directly to the culture medium (final 1% DMSO in the culture media). In control studies, parallel Tg2576 primary neuron cultures were treated with vehicle (1% DMSO) alone. The influence of drug treatments in Aβ content in the conditioned medium in treated cultures was assessed by assessing steady state levels of Aβ1-40 and Aβ1-42 in the culture media 24 hours after treatment.
(§2) Embryonic brain tissue was mechanically triturated and centrifuged. Neurons were seeded onto poly-D-lysine-coated 96-well plates at 1.0×10^5 cells per well and cultured in the serum-free chemically-defined medium Neurobasal, supplemented with 2% B27, 0.5 mM L-glutamine and 1% penicillin-streptomycin (Gibco-BRL).
(§3) For primary screening, cultured neurons were treated with 100 μM of drug in duplicates for 16 hours; all drugs were obtained in stock from MicroSource Discovery Systems Inc (Gaylordsville, Conn.). Conditioned medium was collected for Aβ detection using commercially available ELISA kits (BioSource). […] Primary neurons prepared in 96-well plates were treated with 0.1 μM, 1 μM, 10 μM, 50 μM, and 100 μM of each drug in duplicate for ˜16 hours and conditioned medium was collected for Aβ detection.

Aβ1-42 = Aβ1-42 content in conditioned medium of primary cortico-hippocampal neuron cultures from Tg2576 mice (ELISA; primary and secondary dose-response screening); format: cell-based, mouse; conditions: for activity at 100 µM: Mus musculus, Neuron, 24 h, read-out: Ab1-42 (% of ctl); for activity at 100 µM / Ab1-42 (% of ctl): drug 100 μM; for reducing Aβ1-42: <85% of ctl
Experimental: as §1, §2, §3

[1] = system: primary cortico-hippocampal neuron cultures; test: MTT in primary screening
[2] = system: primary cortico-hippocampal neuron cultures; test: lactate dehydrogenase (LDH) activity assay in parallel neuron cultures
Experimental: For in vitro treatments drugs available from “The Spectrum Collection” in stocks of 10 mM in DMSO were applied directly to cultures to the desired concentrations (final 1% DMSO); control primary neuron cultures from Tg2576 embryos were treated with vehicle resulting in a final 1% DMSO.
Cell viability was assessed using a commercial available LDH assay kit according to the manufacture's instruction (Promega).

[3] = Primary Screening, table sorted by Aβ1-40
[4] = primary screening, Tg2576 neuron cultures, table sorted by Aβ1-42
[5] = primary screening, table sorted by Aβ1-42

SMILES	MTT (% of ctl) [1, 3]	MTT (% of ctl) [1, 5]	LDH (% of ctl) [2, 3]	LDH (% of ctl) [2, 5]	activity at 100 µM (Aβ1-40; [3])	activity at 100 µM (Aβ1-40; [4])	activity at 100 µM (Aβ1-42; [3])	activity at 100 µM (Aβ1-42; [4])	reducing Aβ1-42 (Aβ1-42; primary screening)	reduced Aβ1-40 (Aβ1-40; primary screening)	Ab1-40 (% of ctl) (Aβ1-40; [3])	Ab1-40 (% of ctl) (Aβ1-40; [4])	Ab1-42 (% of ctl) (Aβ1-42; [3])	Ab1-42 (% of ctl) (Aβ1-42; [4])
NS(=O)(=O)c1cc(C(=O)O)c(NCc2ccco2)cc1Cl [Furosemide]	101.0 % of ctl	101.0 % of ctl	98.2 % of ctl	98.2 % of ctl	118%	118%	95.7%	95.7%						
CC(N)CCCC(C)(C)O (centres unmarked) [Heptaminol Hydrochloride]	103.4 % of ctl	103.4 % of ctl	103.4 % of ctl	103.4 % of ctl	112%	112%	105%	105%						
NS(=O)(=O)c1cc2c(cc1Cl)NCNS2(=O)=O [Hydrochlorothiazide]	102.1 % of ctl	102.1 % of ctl	281.1 % of ctl	281.1 % of ctl	89.5%	89.5%	116%	116%						
NS(=O)(=O)c1cc2c(cc1C(F)(F)F)NCNS2(=O)=O [Hydroflumethiazide]	98.9 % of ctl	98.9 % of ctl	99.7 % of ctl	99.7 % of ctl	92.4%	92.4%	90.2%	90.2%						
O=[N+]([O-])O[C@H]1CO[C@H]2[C@@H]1OC[C@H]2O[N+](=O)[O-] [Isosorbide Dinitrate]	100.8 % of ctl	100.8 % of ctl	124.6 % of ctl	124.6 % of ctl					useful in reducing Aβ1-42	reduced Aβ1-40				
CC(=O)O[C@H]1C[C@H](O[C@H]2[C@@H](O)C[C@H](O[C@H]3[C@@H](O)C[C@H](O[C@H]4CC[C@@]5(C)[C@H](CC[C@@H]6[C@@H]5C[C@@H](O)[C@]5(C)[C@@H](C7=CC(=O)OC7)CC[C@]65O)C4)O[C@@H]3C)O[C@@H]2C)O[C@H](C)[C@H]1O[C@@H]1O[C@H](CO)[C@@H](O)[C@H](O)[C@H]1O [Lanatoside C]	66.5 % of ctl	66.5 % of ctl	166.0 % of ctl	166.0 % of ctl						reduced Aβ1-40	45.8 % of ctl	45.8 % of ctl	100.3 % of ctl	100.3 % of ctl
COCCc1ccc(OCC(O)CNC(C)C)cc1 (centres unmarked) [Metoprolol Tartrate]	94.7 % of ctl	94.7 % of ctl	107.5 % of ctl	107.5 % of ctl	91.4%	91.4%	104%	104%						
Cc1cccc(C)c1OCC(C)N (centres unmarked) [Mexiletine Hydrochloride]	95.6 % of ctl	95.6 % of ctl	103.4 % of ctl	103.4 % of ctl	91.3%	91.3%	115%	115%						
COc1ccc(OC)c(C(O)CNC(=O)CN)c1 (centres unmarked) [Midodrine Hydrochloride]	87.8 % of ctl	87.8 % of ctl	105.6 % of ctl	105.6 % of ctl	86%	86%	76.7%	76.7%	useful in reducing Aβ1-42					
Nc1cc(N2CCCCC2)nc(N)[n+]1[O-] [Minoxidil]	98.5 % of ctl	98.5 % of ctl	117.1 % of ctl	117.1 % of ctl	94.2%	94.2%	98.9%	98.9%						
NC(N)=NC(=O)c1nc(Cl)c(N2CCCCCC2)nc1N [N,N-Hexamethyleneamiloride]	96.1 % of ctl	96.1 % of ctl	117.3 % of ctl	117.3 % of ctl					useful in reducing Aβ1-42	reduced Aβ1-40	15.4 % of ctl	15.4 % of ctl	26.2 % of ctl	26.2 % of ctl

Further lines, with some results ahead:

MTT (% of ctl) [1, 3]	MTT (% of ctl) [1, 5]	LDH (% of ctl) [2, 3]	LDH (% of ctl) [2, 5]	SMILES	activity at 100 µM (Aβ1-40; [3])	activity at 100 µM (Aβ1-40; [4])	activity at 100 µM (Aβ1-42; [3])	activity at 100 µM (Aβ1-42; [4])	reducing Aβ1-42 (Aβ1-42; primary screening)	reduced Aβ1-40 (Aβ1-40; primary screening)	Ab1-40 (% of ctl) (Aβ1-40; [3])	Ab1-40 (% of ctl) (Aβ1-40; [4])	Ab1-42 (% of ctl) (Aβ1-42; [3])	Ab1-42 (% of ctl) (Aβ1-42; [4])
103.6 % of ctl	103.6 % of ctl	102.2 % of ctl	102.2 % of ctl	CC[C@H]1CN2CC[C@H]1C[C@@H]2[C@@H](O)c1ccnc2ccc(OC)cc12 [Hydroquinidine]	96.5%	96.5%	121%	121%						
104.2 % of ctl	104.2 % of ctl	85.3 % of ctl	85.3 % of ctl	CC1Cc2ccccc2N1NC(=O)c1ccc(Cl)c(S(N)(=O)=O)c1 (centres unmarked) [Indapamide]	107%	107%	91.3%	91.3%						
98.9 % of ctl	98.9 % of ctl	112.5 % of ctl	112.5 % of ctl	CCCCC1=NC2(CCCC2)C(=O)N1Cc1ccc(-c2ccccc2-c2nnn[nH]2)cc1 [Irbesartan]	89.7%	89.7%	82.3%	82.3%	useful in reducing Aβ1-42					
114.9 % of ctl	114.9 % of ctl	97.0 % of ctl	97.0 % of ctl	CNC1(C)C2CCC(C2)C1(C)C (centres unmarked) [Mecamylamine Hydrochloride]	124%	124%	130%	130%						
76.5 % of ctl	76.5 % of ctl	159.3 % of ctl	159.3 % of ctl	CN1C[C@H](CNC(=O)OCc2ccccc2)C[C@@H]2c3cccc4c3c(cn4C)C[C@H]21 [Metergoline]	-3.1%	-3.1%	2.3%	2.3%	useful in reducing Aβ1-42	reduced Aβ1-40				
69.7 % of ctl	69.7 % of ctl	103.7 % of ctl	103.7 % of ctl	Cc1ccccc1N1C(=O)c2cc(S(N)(=O)=O)c(Cl)cc2NC1C (centres unmarked) [Metolazone]	104%	104%	98%	98%						
15.0 % of ctl	15.0 % of ctl	1127.4 % of ctl	1127.4 % of ctl	CCOC(=O)[N-]c1cn(N2CCOCC2)n[o+]1 [Molsidomine]	118%	118%	121%	121%						
